Counter-ions that a name gives are not always drawn.
Tests used:
Assay type in all cases: functional, cell-based
[1] = Growth inhibition of human Saos2 cells by MTT method; details: SAOS-2
[2] = Growth inhibition of human MG63 cells by MTT method; details: MG-63
[3] = tested on: B16; assay: Growth inhibition of mouse B16 cells by MTT method

IC50 [3]	SMILES	IC50 [1]	IC50 [2]
6.4 µM	COc1cccc2c1C(=O)c1c(O)c3c(c(O)c1C2=O)C[C@@](O)(C(=O)CO)C[C@@H]3O[C@H]1C[C@H](N)[C@H](O)[C@H](C)O1 [DOXORUBICIN HYDROCHLORIDE]	4.2 µM	5.2 µM
35.1 µM	CC[C@H](C)[C@H]1O[C@@]2(C=CC[C@@H](C/C=C(\C)[C@@H](O)[C@@H](C)/C=C/C=C(\C)c3cc(O)c(C)cc3C(=O)O)O2)C=C[C@@H]1C	2.5 µM	6.9 µM
14.7 µM	CC[C@H](C)[C@H]1O[C@@]2(CCC[C@@H](C/C=C(\C)[C@@H](O)[C@@H](C)/C=C/C=C(\C)c3cc(O)c(C)cc3C(=O)O)O2)C[C@H](O)[C@@H]1C	1.9 µM	5.1 µM
40.6 µM	CC[C@H](C)[C@H]1O[C@@]2(CCC[C@@H](C/C=C(\C)[C@@H](O[C@H]3C[C@H](OC)[C@@H](O)[C@H](C)O3)[C@@H](C)/C=C/C=C(\C)c3cc(O)c(C)cc3C(=O)O)O2)C[C@H](O)[C@@H]1C	0.7 µM	1.7 µM

SMILES	IC50 [3]	IC50 [1]	IC50 [2]
CC[C@H](C)[C@H]1O[C@]2(C=C[C@@H]1C)C[C@@H]1C[C@@H](C/C=C(\C)[C@@H](O[C@H]3C[C@H](OC)[C@@H](O[C@H]4C[C@H](OC)[C@@H](O)[C@H](C)O4)[C@H](C)O3)[C@@H](C)/C=C/C=C3\CO[C@@H]4[C@H](O)C(C)=C[C@@H](C(=O)O1)[C@]34O)O2 [ABAMECTIN COMPONENT B1A]	20.5 µM	14.7 µM	8.6 µM
